Results published in PMC4769088, “Antifungal Activity and Action Mechanism of Histatin 5-Halocidin Hybrid Peptides against Candida ssp” (PLoS ONE, 2016).
Where a SMILES comes first, the peptide text is derived from it. Bridges are numbered along the chain shown (N, C = ends). Roman numbers before positions name the chains, in order. Where no end group is shown, it is not given here.

Legend:
Candida cells [1] = test: Candidacidal activity in energy depleted (azide) cells; assay type: cell-based, Candida albicans; details: cells pre-incubated for 60 min in 5 mM NaN3 at 30°C, colony count assay
Procedure: (§1) The candidacidal activities of the peptides were tested by using standard microdilution plate assays, radial diffusion assays and broth dilution assay slightly modified from the procedure recommended by the National Committee for Clinical Laboratory Standards. For the candidacidal assays, C. albicans cells were grown in YPD medium and washed twice with 10 mM sodium phosphate buffer (NaPB; Na2HPO4, NaH2PO4, pH 7.4). The cells (1 x 10^6) were then mixed with different concentrations of peptides and incubated at 30°C with constant shaking for 60 min. For energy depletion experiments, cells were pre-incubated with 10 mM NaPB containing 5 mM NaN3 at 30°C for 60 min before the addition of peptides. The cell suspensions were diluted in 10 mM NaPB and aliquots of 500 cells were spread onto YPD agar plates then incubated for 24 h at 30°C to visualize the surviving colonies. Cell survival was expressed as a percentage of that for the control, and the loss of viability was calculated as [1 x (number of colonies from peptide-treated cells/number of colonies from control cells)] x 100. Candidacidal assays were performed in triplicate. For the radial diffusion assay, C. albicans cells were grown in YPD medium overnight and washed twice with 10 mM NaPB. Washed yeast-phase C. albicans cells (1 x 10^6 CFU) were trapped in thin underlay gels containing 9 mM sodium phosphate, 1 mM sodium citrate buffer, 1% (wt/vol) agarose (A6013; Sigma), and 0.3 mg of Sabouraud dextrose broth (Difco)/ml. After incubation at 37°C for 3 h, a 10 ml overlay gel of 1% agarose and 6% Sabouraud dextrose broth was poured on the underlay gel and then the plates were incubated overnight at 37°C. The clear-zone diameters were measured to the nearest 0.1 mm and graphed against the peptide concentration. Zone diameters were expressed in units (0.1 mm = 1 unit). For the broth dilution assay, the Candida strains were cultured in LYM broth for 18 h at 30°C. The numbers of yeasts were counted using a hemocytometer. Stock peptide solutions were prepared to a concentration of 320 μg/ml in distilled water, and were then serially diluted twofold, to 5 μg/ml. 100 μl aliquots of the diluted culture media containing candida cells (1 x 10^3) were dispensed into the wells of 96-well polypropylene microtiter plates (Costar 3879, Corning, NY), to which peptide solution (11 μl) was then added. In the experiments conducted to assess the candidacidal activity of peptides in the presence of salt, we used LYM supplemented with 150 mM NaCl for the culture medium, which was mixed with the peptide solution. The antifungal activities were evaluated after 24 h of incubation at 30°C by the observation of visible turbidity the wells. The MIC values were expressed as intervals (a–b), with a representing the highest tested concentration at which microbes continue to grow, and b representing the lowest concentration at which growth inhibition could be detected.
To confirm the killing effect of the peptides, washed Candida cells (1 × 10^7 cells/ml) were treated with the peptides and propidium iodide (PI) was added. For energy depletion experiments, cells were pre-incubated with 10 mM NaPB containing 5 mM NaN3 at 30°C for 60 min before the addition of peptides. Propidium iodide (PI) uptake was measured using a multi reader and calculated with the formula [propidium iodide (PI) uptake value of peptide-treated cells—propidium iodide (PI) value of control cells]
Fig 6 The effects of azide on killing activity of peptides. […]

Candida cells [2] = test: ROS production (DCFH-DA fluorometric assay); assay type: cell-based, Candida albicans; details: 32 μg/ml peptide, 120 min, 10 μM DCFH-DA, ex 485 / em 530 nm
Procedure: The amount of ROS produced by Candida cells treated with peptides was measured by a fluorometric assay with DCFHDA as described earlier. Briefly, the cells were adjusted to an OD600 of 1 in 10 ml of NaPB and centrifuged at 5000 ×g for 10 min. The cell pellet was then resuspended in NaPB and treated with peptides alone or with ascorbic acid. After the addition of 10 μM 2`,7`dichlorofluorescein diacetate (DCFH-DA), the fluorescence intensity of the induced ROS production was recorded every 10 min at excitation and emission wavelengths of 485 nm and 530 nm, respectively, in a Perkin Elmer 2030 Reader (Victor X3).  Fig 7 The effect of peptides on ROS generation. Time-dependency of DCF fluorescence as a measure of ROS generation (A) and killing activity (B) were determined in Candida cells treated with peptides (32 μg/ml) or peptides + Ascorbic acid (200 μg/ml) by Perkin Elmer 2030 reader (VictorX 3) and colony count assay, respectively. The fluorescence obtained with the cells treated with 10 mM of H2O2 served as positive control and the cells without peptide served as negative control. The fluorescent intensity of DCF was recorded every 10 min for 120 min at excitation and emission wavelengths of 485 and 530 nm, respectively.

[3] = CD spectra, secondary structure analysis; assay type: physicochemical; details: solvent Laminarin (20 mg/ml in buffer), 200 μg/ml peptide
[4] = test system: laminarin (β-1,3-glucan polymer), C. albicans cell wall component; test: Binding/radial diffusion assay with laminarin; assay type: cell-based; details: peptide final 180 μg/ml, pre-incubated 2 h at 37°C, radial diffusion assay
Procedure: as §1, with “In the experiments conducted to assess the candidacidal activity of peptides in the presence of salt, we used LYM supplemented with 150 mM NaCl for the culture medium, which was mixed with the peptide solution.” left out
Binding of hybrid peptides to the surface of C. albicans cells was examined by assessing the inhibitory effect of fungal cell wall components on the antimicrobial activity of the hybrid peptides. 20 μl of a pre-determined concentration of the peptides was added to 80 μl of each polysaccharide (0.07–40 mg/ml in 10 mM NaPB) including laminarin (β-1,3-glucan polymer; Sigma), pustulan (β-1,6-glucan polymer; Calbiochem) or mannan (mannose polymer; Sigma) and incubated for 2 h at 37°C. The inhibitory effects of the polysaccharides on the antimicrobial activity of the peptides were assessed by radial diffusion assay as described above. […]

Molecule	antimicrobial activities in energy depleted cells (Candida cells [1])	DCF fluorescence intensity (ROS generation) (Candida cells [2])	Secondary structure (%) Beta [3] [%]	Secondary structure (%) Helix [3] [%]	Secondary structure (%) Random [3] [%]	Secondary structure (%) Turn [3] [%]	laminarin concentration at which antimicrobial activity was drastically decreased by pre-incubation [4] [mg/mL]
AKRHHGYKRKFH-NH2 [P113]	significantly reduced	constant increase in fluorescence intensity	0.2	2.8	72.2	24.7	5
CC(C)C[C@H](NC(=O)CNC(=O)[C@H](Cc1c[nH]cn1)NC(=O)[C@H](Cc1c[nH]cn1)NC(=O)[C@H](CC(C)C)NC(=O)[C@H](CC(C)C)NC(=O)[C@H](C)NC(=O)[C@H](CC(N)=O)NC(=O)[C@H](CC(C)C)NC(=O)[C@@H](N)Cc1c[nH]c2ccccc12)C(=O)N[C@@H](CC(N)=O)C(=O)N[C@@H](CSSC[C@H](NC(=O)[C@H](CC(N)=O)NC(=O)[C@H](CC(C)C)NC(=O)CNC(=O)[C@H](Cc1c[nH]cn1)NC(=O)[C@H](Cc1c[nH]cn1)NC(=O)[C@H](CC(C)C)NC(=O)[C@H](CC(C)C)NC(=O)[C@H](C)NC(=O)[C@H](CC(N)=O)NC(=O)[C@H](CC(C)C)NC(=O)[C@@H](N)Cc1c[nH]c2ccccc12)C(=O)N[C@@H](C)C(=O)N[C@@H](CCCCN)C(=O)NCC(=O)N[C@H](C(=O)N[C@@H](CC(C)C)C(=O)N[C@@H](C)C(N)=O)C(C)C)C(=O)N[C@@H](C)C(=O)N[C@@H](CCCCN)C(=O)NCC(=O)N[C@H](C(=O)N[C@@H](CC(C)C)C(=O)N[C@@H](C)C(N)=O)C(C)C [di-18Hc, reference compound] (I: H-WLNALLHHGLNCAKGVLA-NH2 / II: H-WLNALLHHGLNCAKGVLA-NH2; disulfide I:12-II:12 (inferred); N-terminus assumed)	not inhibited	little fluorescence	29.7	29.2	30.3	10.8	0.3
CC(C)C[C@H](NC(=O)CNC(=O)[C@H](Cc1c[nH]cn1)NC(=O)[C@H](Cc1c[nH]cn1)NC(=O)[C@H](CCCNC(=N)N)NC(=O)[C@H](CCCCN)NC(=O)[C@H](C)N)C(=O)N[C@@H](CC(N)=O)C(=O)N[C@@H](CSSC[C@H](NC(=O)[C@H](CC(N)=O)NC(=O)[C@H](CC(C)C)NC(=O)CNC(=O)[C@H](Cc1c[nH]cn1)NC(=O)[C@H](Cc1c[nH]cn1)NC(=O)[C@H](CCCNC(=N)N)NC(=O)[C@H](CCCCN)NC(=O)[C@H](C)N)C(=O)N[C@@H](C)C(=O)N[C@@H](CCCCN)C(=O)N[C@@H](Cc1ccccc1)C(=O)N[C@@H](Cc1c[nH]cn1)C(N)=O)C(=O)N[C@@H](C)C(=O)N[C@@H](CCCCN)C(=O)N[C@@H](Cc1ccccc1)C(=O)N[C@@H](Cc1c[nH]cn1)C(N)=O [di-PH2] (I: H-AKRHHGLNCAKFH-NH2 / II: H-AKRHHGLNCAKFH-NH2; disulfide I:9-II:9 (inferred); N-terminus assumed)	significantly reduced	constant increase in fluorescence intensity	0.0	20.5	61.1	18.4	5
C[C@H](NC(=O)[C@H](Cc1c[nH]cn1)NC(=O)[C@H](CO)NC(=O)[C@@H](N)CC(=O)O)C(=O)N[C@@H](CCCCN)C(=O)N[C@@H](CCCNC(=N)N)C(=O)N[C@@H](Cc1c[nH]cn1)C(=O)N[C@@H](Cc1c[nH]cn1)C(=O)NCC(=O)N[C@@H](Cc1ccc(O)cc1)C(=O)N[C@@H](CCCCN)C(=O)N[C@@H](CCCNC(=N)N)C(=O)N[C@@H](CCCCN)C(=O)N[C@@H](Cc1ccccc1)C(=O)N[C@@H](Cc1c[nH]cn1)C(=O)N[C@@H](CCC(=O)O)C(=O)N[C@@H](CCCCN)C(=O)N[C@@H](Cc1c[nH]cn1)C(=O)N[C@@H](Cc1c[nH]cn1)C(=O)N[C@@H](CO)C(=O)N[C@@H](Cc1c[nH]cn1)C(=O)N[C@@H](CCCNC(=N)N)C(=O)NCC(=O)N[C@@H](Cc1ccc(O)cc1)C(=O)O [Hst 5, Histatin 5]	significantly reduced	constant increase in fluorescence intensity	21.7	0.0	62	16.3	2.5
CC(C)C[C@H](NC(=O)[C@@H](N)Cc1c[nH]c2ccccc12)C(=O)N[C@@H](CC(N)=O)C(=O)N[C@@H](C)C(=O)N[C@@H](CCCCN)C(=O)N[C@@H](CCCNC(=N)N)C(=O)N[C@@H](Cc1c[nH]cn1)C(=O)N[C@@H](Cc1c[nH]cn1)C(=O)NCC(=O)N[C@@H](Cc1ccc(O)cc1)C(=O)N[C@@H](CCCCN)C(=O)N[C@@H](CSSC[C@H](NC(=O)[C@H](CCCCN)NC(=O)[C@H](Cc1ccc(O)cc1)NC(=O)CNC(=O)[C@H](Cc1c[nH]cn1)NC(=O)[C@H](Cc1c[nH]cn1)NC(=O)[C@H](CCCNC(=N)N)NC(=O)[C@H](CCCCN)NC(=O)[C@H](C)NC(=O)[C@H](CC(N)=O)NC(=O)[C@H](CC(C)C)NC(=O)[C@@H](N)Cc1c[nH]c2ccccc12)C(=O)N[C@@H](CCCCN)C(=O)N[C@@H](Cc1ccccc1)C(=O)N[C@@H](Cc1c[nH]cn1)C(N)=O)C(=O)N[C@@H](CCCCN)C(=O)N[C@@H](Cc1ccccc1)C(=O)N[C@@H](Cc1c[nH]cn1)C(N)=O [di-WP2] (I: H-WLNAKRHHGYKCKFH-NH2 / II: H-WLNAKRHHGYKCKFH-NH2; disulfide I:12-II:12 (inferred); N-terminus assumed)	not inhibited	little fluorescence	24.5	0.0	54.7	20.8	1.25
